Results reported in patent US5122448A, “Assay of anti-Epstein-Barr virus nuclear antigen antibodies with synthetic polypeptides” (Scripps Clinic and Research Foundation, priority 1990, dated 1992).
Residues, ends and D or L forms follow the SMILES beside them.

Tests used:
EBNA = experiment: Immunoblot of WI-L2 whole cell extracts with rabbit antipeptide antisera, blocking by polypeptide; type: binding, Epstein-Barr virus
Experimental: Exemplary receptor molecules containing antibody combining sites of this invention raised in rabbits to the polypeptides shown in Table 1 were studied using the immunoblotting procedures of Towbin, et. al., Proc. Natl. Acad. Sci., U.S.A., 76:4350-4354 (1979) and Billings, et. al., Proc. Natl. Acad. Sci., U.S.A., 80:7104-7108 (1983). Further details are provided in the Materials and Methods section (III).
Extracts of EBNA producing and non-producing (control) cells were prepared to determine if receptor molecules of this invention were useful for diagnosing EBNA expression. Cells from cultures described hereinabove were washed in phosphate-buffered saline (PBS; 150 mM NaCl, 10 mM sodium phosphate, pH 7.4) containing 0.2 mM phenylmethylsulfonyl fluoride, swollen for 5 minutes in reticulocyte standard buffer (RSB; 10 mM NaCl, 10 mM Tris-HCl, pH 7.4, 1.5 mM MgCl2, 0.2 mM phenylmethylsulfonyl fluoride), and lysed by sonication in 3-5 volumes of RBS adjusted to 0.2-0.35 molar (M) NaCl. After 30 minutes on ice, the sonicate was centrifuged at 10,000×g for 15 minutes to remove cellular debris.
Cell extracts obtained above were assayed for EBNA using human sera known to contain anti-EBNA antibodies or exemplary receptor molecules of this invention. The extracts were either concentrated by precipitation with 2 volumes of ethanol at -20 degrees C. for about 18 hours, and were then dissolved in sample buffer [SB; 10% glycerol, 2% 2-mercaptoethanol, 1% sodium dodecyl sulfate (SDS), 0.002% bromphenol blue, 40 mM Tris-HCl (pH 7.4)] or diluted 1:6 in sample buffer for SDS-polyacrylamide gel electrophoresis (SDS-PAGE). 7.5% Polyacrylamide gels were cast and run according to the procedure of Laemmli, Nature, […] (1970), applying 50 to 200 micrograms of total protein per lane. […]
Anti-peptide antibodies bound to EBNA protein were detected by reacting the blots with an indicating means. […]

[1] = tested on: rabbit anti-polypeptide antibody to polypeptide P62; experiment: Competition ELISA with rabbit anti-polypeptide P62 antibody on solid phase P62; type: binding; conditions: antibody first incubated with competing polypeptide
Experimental: Anti-peptide antibody binding and inhibition studies were carried out by an enzyme-linked immunosorbent assay (ELISA) as described below.
Contact between the wells and antigen-containing solution was maintained for a predetermined time, typically 15 minutes, and at 20 degrees C., to form an antigen-coated solid phase. The solid and liquid phases were separated and the wells were washed three times with BBS.
Rabbit and human sera (body sample aliquots) were assayed for anti-polypeptide activity by adding 100 microliters of a serum diluted 1:20 in BBS per well to form a solid/liquid phase composition. Contact between the diluted sera and the antigen-coated solid phase was maintained for a predetermined time such as 1 hour, and at 20 degrees C., for an immunoreactant to form. The solid and liquid phases were separated, and the solid phase; i.e., antigen-coated, immunoreactant-containing wells, was then washed three times with BBS.

[2] = Circular dichroism spectroscopy; type: physicochemical; conditions: 1 mg/ml in phosphate buffered saline
Experimental: The conformational properties of the polypeptides were investigated to elucidate any secondary structure that might be necessary for polypeptide immunoreaction with human anti-EBNA antibodies. The polypeptides were dissolved at a concentration of 1 mg/ml in phosphate-buffered saline (PBS). Spectra were taken using 1 ml samples in a Cary 61 spectropolarimeter (Cary Instruments, Applied Physics Corp., Monrovia, Calif.) interfaced and automated with a Digital Equipment Corporation 11/02 computer (Digital Equipment Corporation, Maynard, Mass.).

anti-EBNA antibodies = experiment: ELISA with polypeptide as solid phase antigen, anti-polypeptide activity of sera (OD405); type: binding, human; conditions: for OD405 × 10^3 obtained with Patient Antibodies to peptide: serum 1:20
Experimental: Briefly, microtiter wells (Costar, #3590, Cambridge, MA) were typically coated with individual polypeptides as antigens by adding 100 microliters (ul) of BBS [10 millimoler (mM) sodium borate (pH 8.3), 150 mM NaCl] containing polypeptide at a concentration of 10 micrograms per milliliter (ug/ml). Contact between the wells and antigen-containing solution was maintained for a predetermined time, typically 15 minutes, and at 20 degrees C., to form an antigen-coated solid phase. The solid and liquid phases were separated and the wells were washed three times with BBS.
Non-specific binding sites were blocked by admixing 200 microliters of 1% bovine serum albumin (BSA) in each well to form another solid/liquid phase admixture, and maintaining that solid/liquid phase admixture for 30 minutes, at 20 degrees C. The phases were separated and excess, unbound BSA was removed by washing three times with BBS.
The antibodies in human sera that immunoreacted with an adsored polypeptide were detected using an indicating means comprising alkaline phosphatase-conjugated goat anti-human Ig antibody (Tago, Burlington, Calif.). The antibodies in rabbit sera that immunoreacted with an adsorbed polypeptide were detected using an indicating means comprising alkaline phosphatase-conjugated goat anti-rabbit Ig antibody (Kirkegard & Perry Laboratories, Inc., Gaithersburg, MD). In either instance, 100 microliters of the indicating antibody diluted 1:300 in BBS were added per well to form a further solid/liquid phase composition. This solid-liquid phase composition was maintained for a predetermined time, one hour, for the formation of a reaction product between the human antibodies bound to the solid phase and the indicating means, and at 20 degrees C. The phases were separated, and the solid phase was washed 3 times with BBS.
Alkaline phosphatase-conjugated antibody bound to polypeptide specific antibody was detected by spectrophotometrically measuring the enzymatic hydrolysis of p-nitrophenyl phosphate to p-nitrophenol. Briefly, 100 microliters of p-nitrophenyl phosphate [1 milligram per milliliter in 2 mM MgCl 2, (pH 9.8), 50 mM sodium carbonate] were added to each well. The enzymatic reaction was allowed to proceed 1 hour and then the optical density at 405 nm was determined in a [sequence] spectrophotometer available from Flow Laboratories, Inglewood, Calif.

Compound: C[C@H](NC(=O)CNC(=O)CNC(=O)[C@H](C)NC(=O)CNC(=O)[C@H](C)NC(=O)CNC(=O)CNC(=O)CN)C(=O)NCC(=O)N[C@@H](C)C(=O)NCC(=O)NCC(=O)NCC(=O)NCC(=O)N[C@@H](CCCNC(=N)N)C(=O)O [Polypeptide P60, H--Gly--Gly--Gly--Ala--Gly--Ala--Gly--Gly--Ala--Gly--Ala--Gly--Gly--Gly--Gly--Arg--OH] (H-GGGAGAGGAGAGGGGR-OH)
- Immunoreactivity of anti-P62 serum with the EBNA band after preincubation with polypeptide (EBNA; serum 1:10, 40 ug/ml polypeptide P60, one hour): inhibited
- Recognition of EBNA by anti-P60 serum after preincubation with polypeptide (EBNA; serum 1:50, 40 ug/ml polypeptide, one hour): inhibited
- Inhibition of binding of anti-polypeptide P62 to polypeptide P62 in the solid phase [1]: 81%
- Conformation by circular dichroism spectrum [2]: very similar spectra
- Reactivity of sera of EBV non-immune donors to polypeptide (anti-EBNA antibodies; 27 EBV non-immune (VCA-) donors): None of the sera displayed significant reactivity
- Number of anti-EBNA positive sera positive against (bound to) polypeptide (anti-EBNA antibodies; 91 ACIF anti-EBNA positive sera, 1:20 dilution): 91
- Titer of PSS patients versus normals (anti-EBNA antibodies; Progressive Systemic Schlerosis patients): relatively higher average titer
- Reaction of VCA+ sera with polypeptide (anti-EBNA antibodies; clinically normal VCA+ individuals, two dilutions): all of the VCA^+ individuals were positive
- Reaction of VCA- sera with polypeptide (anti-EBNA antibodies; panel of 19 VCA- sera): None of the VCA^- sera were found to react positively
- OD405 × 10^3 obtained with Patient Antibodies to peptide (anti-EBNA antibodies; MV post-mononucleosis): 162 OD405 × 10^3
- OD405 × 10^3 obtained with Patient Antibodies to peptide (anti-EBNA antibodies; MV pre-mononucleosis): 72 OD405 × 10^3
- OD405 × 10^3 obtained with Patient Antibodies to peptide (anti-EBNA antibodies; SB post-mononucleosis): 115 OD405 × 10^3
- OD405 × 10^3 obtained with Patient Antibodies to peptide (anti-EBNA antibodies; SB pre-mononucleosis): 51 OD405 × 10^3
- OD405 × 10^3 obtained with Patient Antibodies to peptide (anti-EBNA antibodies; VCA+ Normal 1): 154 OD405 × 10^3
- OD405 × 10^3 obtained with Patient Antibodies to peptide (anti-EBNA antibodies; VCA+ Normal 2): 145 OD405 × 10^3
- OD405 × 10^3 obtained with Patient Antibodies to peptide (anti-EBNA antibodies; VCA- Normals (n = 27), average ± one standard deviation): 45 ± 18 OD405 × 10^3
